# In ChEMBL document CHEMBL5604064, “ASAP - DENV-1 NS2B-NS3 protease fluorescence dose response” (2024):
# Target: T1, NS3 protease (dengue virus type 1, UniProt A0A0K0TQ28)
# T1 sequence (A0A0K0TQ28 whole entry): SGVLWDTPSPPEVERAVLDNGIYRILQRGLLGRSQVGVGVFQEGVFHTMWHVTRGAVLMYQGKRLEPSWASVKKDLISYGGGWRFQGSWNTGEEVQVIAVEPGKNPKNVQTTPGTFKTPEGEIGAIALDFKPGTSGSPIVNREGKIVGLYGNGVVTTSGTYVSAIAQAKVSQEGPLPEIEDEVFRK
# Assay: Functional biochemical assay to identify treatments for viral infectious disease that targets Dengue virus type 1 NS2B-NS3 protease. Utilizing a direct enzyme activity measurement method, reading the fluorescence intensity is used to characterize the relative potency of inhibitors as IC50.
# Set-up: species or system Nauru/West Pac/1974
row,Structure (SMILES),IC50 [µM]
1,N#Cc1ccc(-c2nc3c(C(=O)Nc4ccc5c(c4)CNC5)cc(F)cc3[nH]2)cc1,1.68
2,COc1cccc(-c2nc3c(C(=O)Nc4ccc5c(c4)CNC5)cc(F)cc3[nH]2)c1,5.41
3,O=C(Nc1ccc2c(c1)CNC2)c1cc(F)cc2[nH]c(-c3cccc(F)c3)nc12,2.69
4,Cc1cccc(-c2nc3c(C(=O)Nc4ccc5c(c4)CNC5)cc(F)cc3[nH]2)c1,5.92
5,NCc1ccc(-c2csc3cc(C(=O)Nc4ccc5c(c4)CNC5)ccc23)cc1,31.7
6,NCc1csc2cc(C(=O)Nc3ccc4c(c3)CNC4)ccc12,9.99
7,O=C(Nc1ccc2c(c1)CNC2)c1cccc2c(C3CNC3)n[nH]c12,92.9
